Patent publication US20140221282A1, “LONG DURATION DUAL HORMONE CONJUGATES” (priority 2011, published 2014)
Ends that are not written are not given here. Y‑shaped‑mPEG40KD = Y-shaped methoxy-PEG of 40 kDa attached to the Lys side chain; mPEG40KD = methoxy-PEG of 40 kDa

What was measured:
amylin receptor = experiment: Amylin receptor binding assay, rat nucleus accumbens membranes; details: 125I-rat amylin displacement
Description: Dried glass fiber plates were combined with scintillant and counted on a multi-well Perkin Elmer scintillation counter, as well known in the art.

[1] = Body weight change in lean rats; assay type: in vivo; details: for body weight reduction: SC 125 nmol/kg (FIG. 17)
Experimental: Lean rats were administered a subcutaneous (SC) once weekly injection of test compound (125 nmol/kg) or vehicle. FIGS. 13A-13B provide the result of a multi-day food intake assays. The effect on 24-hour food intake was investigated for Cmpds 69, 73, 72, 70, and 74, using vehicle as control. […] In the case of some of the compounds, weight loss was still evident even after one week.
The effect on 24-hour food intake, as judged with SC injection (125 nmol/kg), was investigated for Cmpds 74, 76, 77 and 78.
Test animals (lean rats) were injected SC at 125 nmol/kg, and body weight corrected for vehicle (FIG. 19A) and cumulative food intake (FIG. 19B) were determined for 7-days. As shown in FIGS. 19A-19B, most compounds in the tested series provided weight loss which was still evident after 7-days.

Food intake in lean rats = assay type: in vivo; details: for food intake: SC once weekly injection 125 nmol/kg
Experimental: A variety of food intake assays are available to one of skill in the art. For example, in the so-called “home cage model” of food intake, subjects (e.g., rats) are maintained in their home cage, and food intake along with total weight of the subject is measured following injection of test compound. In the so-called “feeding patterns model” of food intake assay, subjects (e.g., rats) are habituated to a feeding chamber and to injections prior to testing. After test compound administration, the subjects are immediately placed into the feeding chamber, and food intake is automatically determined as a function of time (e.g., 1-min intervals). For both tests, the food is standard chow or any of a variety of chows (e.g., high fat) known in the art. In the so-called “mouse food intake” assay, a test compound may be tested for appetite suppression, or for an effect on body weight gain in diet-induced obesity (DIO) mice. In a typical mouse food intake assay, female NIH/Swiss mice (8-24 weeks old) are group housed with a 12:12 hour light:dark cycle with lights on at 0600. Water and a standard pelleted mouse chow diet are available ad libitum, except as noted. Animals are fasted starting at approximately 1500 hrs, I day prior to experiment. The morning of the experiment, animals are divided into experimental groups. In a typical study, n=4 cages with 3 mice/cage. At time=0 min, all animals are given an intraperitoneal injection of vehicle or compound, typically in an amount ranging from about 10 nmol/kg to 75 nmol/kg, and immediately given a pre-weighed amount (10-15 g) of the standard chow. Food is removed and weighed at various times, typically 30, 60, and 120 minutes, to determine the amount of food consumed. See e.g., Morley et al., 1994, Am. J. Physiol. 267:R178-R184). Food intake is calculated by subtracting the weight of the food remaining at the e.g. 30, 60, 120, 180 and/or 240 minute time point, from the weight of the food provided initially at time=0. Significant treatment effects are identified by ANOVA (p<0.05). Where a significant difference exists, test means are compared to the control mean using Dunnett's test (Prism v. 2.01, GraphPad Software Inc., San Diego, Calif.). For any test described herein, administration of test compound can be by any means, including injection (e.g., subcutaneous, intraperitoneal, and the like), oral, or other methods of administration known in the art.
FIGS. 13A-13B provide the result of a multi-day food intake assays. The effect on 24-hour food intake was investigated for Cmpds 69, 73, 72, 70, and 74, using vehicle as control. […] In the case of some of the compounds, weight loss was still evident even after one week. […]
As shown in FIGS. 19A-19B, most compounds in the tested series provided weight loss which was still evident after 7-days.

[2] = Body weight change in lean rats; assay type: in vivo; details: for body weight reduction: Cmpd 77 31.25-250 nmol/kg, Cmpd 79 250 nmol/kg (FIG. 18)
[3] = Body weight change in diet induced obese (DIO) rats; assay type: in vivo, DIO Sprague Dawley rats; details: SC once a week 125 nmol/kg, four weeks
Experimental: The effect of Cmpd 14 on body weight was examined in male outbred diet-induced obese Sprague Dawley rats. Percent vehicle-corrected change in body weight was measured relative to PEGylated parent peptides alone and in combination. […]
Specifically, in this experiment the duration of action on food intake and change in body weight was compared for compounds having a single active peptide element (Cmpd 6 and Cmpd 7) relative to the combined dosing of these compounds, and further relative to LDDHC Cmpd 14, having the active peptide elements of Cmpds 6-7 separated by a 40 kDa PEG water-soluble polymeric spacer. […] In the combination dosing, each of Cmpd 6 and Cmpd 7 was administered at 32 nmol/kg. The test subjects were DIO rats (n=6/group, body weight baseline=478 g). […]
Plasma drug levels were determined by ELISA assay.
[…] The baseline body weight was 505 gm.

[4] = SC once weekly injection 125 nmol/kg
[5] = Cmpd 77 31.25-250 nmol/kg, Cmpd 79 250 nmol/kg (FIG. 18)

IC50 (amylin receptor) [nM]	Molecule	body weight [1, 4]	food intake (Food intake in lean rats)	further results
0.42	CNTATCATQRLANFLVRSSNNLGPVLPPTNVGSNTY [Cmpd 50, [des-Lys^1]-Cmpd 49]	–	–	–
–	[K^21(mPEG40KD)]-Cmpd 51 (KCNTATCATQRLANFLVRSSK(mPEG 40 kDa)NLGPVLPPTNVGSNTY-NH2; cysteine pairing not given here) [Cmpd 69]	efficacious	efficacious	–
–	[K^21(mPEG40KD)]-Cmpd 52 (CNTATCATQRLANFLVRSSK(mPEG 40 kDa)NLGPVLPPTNVGSNTY-NH2; cysteine pairing not given here) [Cmpd 70]	efficacious	efficacious	–
–	[K^21(mPEG40KD)]-Cmpd 59 (CNTATCATQRLANFLVHSSK(mPEG 40 kDa)NFGPILPPTNVGSNTY-NH2; cysteine pairing not given here) [Cmpd 76]	–	–	body weight reduction [1]: at least as efficacious as Cmpd 74; food intake reduction (Food intake in lean rats; SC 125 nmol/kg (FIG. 17)): at least as efficacious as Cmpd 74
470	[K^26(Y-shaped-mPEG40KD)]-Cmpd 53 (KCNTATCATQRLANFLVRSSNNLGPK(Y‑shaped‑mPEG40KD)LPPTNVGSNTY-NH2; cysteine pairing not given here) [Cmpd 75]	–	–	body weight ([1]; single SC dose, y-branched vs linear PEG): not as efficacious as the linear pegylated version, Cmpd 71
–	[K^26(Y-shaped-mPEG40KD)]-Cmpd 60 (CNTATCATQRLANFLVHSSNNFGPK(Y‑shaped‑mPEG40KD)LPPTNVGSNTY-NH2; cysteine pairing not given here) [Cmpd 79]	–	–	food intake reduction (Food intake in lean rats; [5]): not as efficacious as the linear pegylated version, Cmpd 77; body weight reduction [2]: not as efficacious as the linear pegylated version, Cmpd 77
66	[K^26(mPEG40KD)]-Cmpd 53 (KCNTATCATQRLANFLVRSSNNLGPK(mPEG40KD)LPPTNVGSNTY-NH2; cysteine pairing not given here) [Cmpd 71]	–	–	weight loss [3]: not as efficacious as infused Cmpd 49; food intake, dose response (Food intake in lean rats; 12-250 nmol/kg): reduced body weight and food intake in a dose dependent fashion; body weight, dose response ([2]; 12-250 nmol/kg): reduced body weight and food intake in a dose dependent fashion
–	[K^26(mPEG40KD)]-Cmpd 54 (CNTATCATQRLANFLVRSSNNLGPK(mPEG40KD)LPPTNVGSNTY-NH2; cysteine pairing not given here) [Cmpd 72]	efficacious	efficacious	–
–	[K^26(mPEG40KD)]-Cmpd 60 (CNTATCATQRLANFLVHSSNNFGPK(mPEG40KD)LPPTNVGSNTY-NH2; cysteine pairing not given here) [Cmpd 77]	–	–	body weight reduction [1]: at least as efficacious as Cmpd 74; food intake reduction (Food intake in lean rats; [5]): dose dependent efficacy; food intake reduction (Food intake in lean rats; SC 125 nmol/kg (FIG. 17)): at least as efficacious as Cmpd 74; body weight reduction [2]: dose dependent efficacy
–	[K^31(mPEG40KD)]-Cmpd 55 (KCNTATCATQRLANFLVRSSNNLGPVLPPTK(mPEG40KD)VGSNTY-NH2; cysteine pairing not given here) [Cmpd 73]	efficacious	efficacious	–
–	[K^31(mPEG40KD)]-Cmpd 56 (CNTATCATQRLANFLVRSSNNLGPVLPPTK(mPEG40KD)VGSNTY-NH2; cysteine pairing not given here) [Cmpd 74]	efficacious	efficacious	–
–	[K^31(mPEG40KD)]-Cmpd 61 (CNTATCATQRLANFLVHSSNNFGPILPPTK(mPEG40KD)VGSNTY-NH2; cysteine pairing not given here) [Cmpd 78]	–	–	body weight reduction [1]: at least as efficacious as Cmpd 74; food intake reduction (Food intake in lean rats; SC 125 nmol/kg (FIG. 17)): at least as efficacious as Cmpd 74
78	mPEG40KD-Cmpd 50 (CNTATCATQRLANFLVRSSNNLGPVLPPTNVGSNTY-NH2; cysteine pairing not given here; also: mPEG40KD attached, site not given here) [Cmpd 68]	–	–	–

Molecule	IC50 (amylin receptor) [nM]	body weight [1, 4]	food intake (Food intake in lean rats)	further results
CC(C)C[C@H](NC(=O)[C@H](CC(N)=O)NC(=O)[C@H](CC(N)=O)NC(=O)[C@H](CO)NC(=O)[C@H](CO)NC(=O)[C@H](CCCNC(=N)N)NC(=O)[C@@H](NC(=O)[C@H](CC(C)C)NC(=O)[C@H](Cc1ccccc1)NC(=O)[C@H](CC(N)=O)NC(=O)[C@H](C)NC(=O)[C@H](CC(C)C)NC(=O)[C@H](CCCNC(=N)N)NC(=O)[C@H](CCC(N)=O)NC(=O)[C@@H](NC(=O)[C@H](C)NC(=O)[C@@H]1CSSC[C@H](NC(=O)[C@@H](N)CCCCN)C(=O)N[C@@H](CC(N)=O)C(=O)N[C@@H]([C@@H](C)O)C(=O)N[C@@H](C)C(=O)N[C@@H]([C@@H](C)O)C(=O)N1)[C@@H](C)O)C(C)C)C(=O)NCC(=O)N1CCC[C@H]1C(=O)N[C@H](C(=O)N[C@@H](CC(C)C)C(=O)N1CCC[C@H]1C(=O)N1CCC[C@H]1C(=O)N[C@H](C(=O)N[C@@H](CC(N)=O)C(=O)N[C@H](C(=O)NCC(=O)N[C@@H](CO)C(=O)N[C@@H](CC(N)=O)C(=O)N[C@H](C(=O)N[C@@H](Cc1ccc(O)cc1)C(N)=O)[C@@H](C)O)C(C)C)[C@@H](C)O)C(C)C [Cmpd 49, reference compound]	0.1	–	–	–
